Results on three compounds are retold here after patent publication US7579373B2, “Targeted bisplatinum polyamines as pro-drugs: selective release of platinum” (Virginia Commonwealth University, priority 2002, dated 2009).

Read-outs that look alike come from different tables or passages of the source.

For one data set, the system named is CH1/CDDP. The data set can be described thus: SRB growth inhibition assay, CH1/CDDP. In kind it is cell-based, human. To be noted: for IC50: 96 h exposure; for RF CH1/CDDP: IC50 resistant/IC50 parent line, 96 h. The method, then:
(§1) Cell culture. A2780, A2780/CDDP, CH1, CH1/CDDP, 41M and 41M/CDDP cell lines were used in this study and maintained according to published procedures. (8,9).
(§2) Growth inhibition assay. The Sulforhodamine B (SRB) assay was used to determine growth inhibition potency of platinum drugs (10). The cells were seeded in 96-well microtitre plates at 3-8×10^3 cells/well in 160 μL growth medium and allowed to attach overnight. Platinum agents were then added after serial dilution in quadruplicate wells and exposed to cells for 2 or 96 hours. After the 2 hours drug incubations were complete, plates were washed free of drug with phosphate-buffered saline (PBS) and then refed with normal growth medium for a further 94 hours. Quantitation of cell growth in treated and control wells was then assessed using 0.4% SRB dissolved in 1% acetic acid. IC50 values were determined graphically. […]

For data set [1], the system named is L1210/0. The data set can be described thus: Cellular accumulation in L1210/0 cells. The note with it: 2 hours of exposure; (±SE), 3 experiments of 2 determinations. In kind it is cell-based, murine. The protocol: (§3) Cellular accumulation. The cellular accumulation assays followed published procedures (7). Briefly, cells were resuspended at 10^7/mL in media supplemented with […]. Platinum complexes were added, and samples were incubated at 37° C. in 5% CO2. At 0 and 2 hours aliquots were removed for determination of cell concentrations and for measurement of platinum content. For the latter, aliquots were washed three times in cold phosphate buffered saline, resuspended in 1% Triton-X in water, and sonicated. Platinum content was measured by flameless atomic absorption spectroscopy.
(§4) The cellular accumulation of the blocked Pt compound 2 was also investigated. […] Based solely on charge considerations the BOC-spermidine with a charge of 2+ should have cellular uptake similar to 1,1/t,t (n=6). The enhanced uptake could be explained by some hydrolysis in media or plasma producing small amounts of the protonated 1,1/t,t-spermidine. Considering the potency of polynuclear-polyamine compounds, a small percentage of hydrolysis could have a significant impact on in vivo activity.

The subject of another data set is 41M. Nature of the data set: SRB growth inhibition assay, 41M. Format: cell-based, human. The note with it: 96 h exposure. The method, then:
as §1
(§5) Growth inhibition assay. The Sulforhodamine B (SRB) assay was used to determine growth inhibition potency of platinum drugs (10). The cells were seeded in 96-well microtitre plates at 3-8×10^3 cells/well in 160 μL growth medium and allowed to attach overnight. Platinum agents were then added after serial dilution in quadruplicate wells and exposed to cells for 2 or 96 hours. After the 2 hours drug incubations were complete, plates were washed free of drug with phosphate-buffered saline (PBS) and then refed with normal growth medium for a further 94 hours. Quantitation of cell growth in treated and control wells was then assessed using 0.4% SRB dissolved in 1% acetic acid. IC50 values were determined graphically.
(§6) Of special interest is the remarkably low value for 4 (Fmoc) in A2780 cells.

Another data set concerns A2780/CDDP. Nature of the data set: SRB growth inhibition assay, A2780/CDDP. Format: cell-based, human. To be noted: for IC50: 96 h exposure; for RF A2780/CDDP: IC50 resistant/IC50 parent line, 96 h. The protocol: as §1, §2
In another data set the test system is CH1. The data set can be described thus: SRB growth inhibition assay, CH1. In kind it is cell-based, human. To be noted: 96 h exposure. The method, then: as §1, §5, §6
Data set [2] has as its system L1210/0. The data set can be described thus: Growth inhibition in L1210/0 cells. The note with it: 2 hours of exposure; mean (±SE), 3 experiments of 2 determinations. Format: cell-based, murine.
Excerpt: To examine the pro-drug potential in a biological setting, a comparison of the pharmacological properties of the blocked polyamine compounds in L1210 murine leukemia cells was undertaken.
For a further data set, the system named is A2780. Nature of the data set: SRB growth inhibition assay, A2780. Format: cell-based, human. The note with it: 96 h exposure. The method, then:
as §1, §5, §6

For data set [3], the system named is L1210/DDP. The data set can be described thus: Cellular accumulation in L1210/DDP cells. To be noted: 2 hours of exposure; (±SE), 3 experiments of 2 determinations. Format: cell-based, murine. The method, then:
as §3, §4

A short description of data set [4]: pKa of the N4 site by pH titration monitored by 1H NMR. In kind it is physicochemical. The method, then: pH measurements were taken on a Corning 340 pH meter with combined glass electrode. pD values in deuterated solutions were obtained by addition of 0.4 units to the meter reading. Extinction coefficients were determined with a Jasco V-550 UV/VIS spectrophotometer using 1 cm cuvettes.
In order to find the optimal conditions for the synthetic procedure, the pKa of the N4 site of the unprotected Pt spermidine complex 1 was determined prior to the protection reactions (6). A pH titration was carried out and monitored by ^1H NMR spectroscopy (11 and 12). […] The increased acidity is most likely a consequence of the electron withdrawing effect of the coordinated platinum centers.

Data set [5] relates to L1210/DDP. Nature of the data set: Growth inhibition in L1210/DDP cells. Format: cell-based, murine.
The subject of the next data set is 41M/CDDP. Nature of the data set: SRB growth inhibition assay, 41M/CDDP. In kind it is cell-based, human. To be noted: for IC50: 96 h exposure, read-out: 96H IC50 CH1/CDDP; for RF CH1/CDDP: IC50 resistant/IC50 parent line, 96 h. The protocol:
as §1, §5, §6

Data set [6] is classed as physicochemical. To be noted: first order. The method, then: Analyses of the products and hydrolysis studies were carried out on an analytical Beckman System Gold Nouveau HPLC instrument with UV detection at 215 nm. A Lichrosphere RP-8 column (5 μm particle size, dimensions 250 mm×4 mm) was used with a solvent gradient from water/methanol 97:3 (0.05 M NaClO4, 1% NaCl) to water/methanol 70:30 (0.05 M NaClO4, 2% NaCl).
Hydrolysis Study. For the hydrolysis experiments 10^−3 mMol complex were dissolved in 1 mL of nanopure water. The pH of the solutions was adjusted by addition of HNO3 (0.1 M, 0.01 M) and NaOH (0.1 M, 0.01 M), respectively. The samples were incubated in a water bath at 37° C. and aliquots of 20 μL were taken from the bulk solution for HPLC analysis. The pH values of the samples were controlled in regular intervals and readjusted if necessary.
The hydrolysis of the protective groups of compounds 2-4 was monitored at 37° C. at various pH values. […] In addition, the chromatogram of 2 contained a peak of a minor impurity (ca 0.4%) which remained unchanged during the timecourse of the reaction. Deprotection of the secondary amino function leads to the appearance of a signal for the unprotected spermidine complex 1 that, as a consequence of the increased cationic charge, is well separated from the signal of the N4 blocked precursor. The area percentage of the integrated signal of the unprotected species is taken as an estimate for the amount of hydrolysis at a given timepoint. To allow for a more accurate quantitative comparison of results, the extinction coefficients for compounds 1-4 were determined at 215 nm (Table 1). The integral values of the blocked compounds have been corrected for the higher absorbance of these species at the observed wavelength compared to the unprotected species 1. Table 2 provides a summary of the amount of hydrolysis for all samples before and after the correction. Rate constants were calculated based on the corrected integral values.
The hydrolysis of the blocking groups of on the N4 position of compounds 5-7 was monitored at 37° C. over a pH range of 6-8.
The amount of 1,1/t,t-spermidine released over time is depicted in FIG. 8. No other products were detected, trifluoroacetate, originating from the hydrolysis reaction, is not retained on the column under the present conditions and coelutes with the other anions (Cl^− from 5, NO3^− from pH adjustment). In order to obtain rate constants for the conversion of 7 to 1,1/t,t-spermidine, the integral values of the chromatograms were corrected for the different absorption of the species at the observed wavelength (ε215: 1, 3.64·10^3; 5, 7.62·10^3; 6, 10.4·10^3; 7, 9.46·10^3 L.Mol^−1 .cm^−1). Concentrations were calculated based on the assumption that the sum of the concentrations of both species at every time point equals the original concentration of 7 at the start of the experiment. First order rate constants were obtained using the program MicroMath Scientist Version 2.01. The results are summarized in Table 3 and compared with values obtained for BOC and Fmoc protected spermidine complexes.

For `N.N.N.N.NCCCC[NH2+]CCCN.[Cl-].[Cl-].[Cl-].[Cl][Pt+].[Cl][Pt+]` [Compound 1, [{trans-Pt(NH3)2Cl}2-μ-spermidine-N^1,N^8]Cl3], the IC50 in the data set with CH1/CDDP was 0.35 µM; in the data set with 41M, < 0.25 µM; in the data set with A2780/CDDP, < 0.25 µM; with CH1, 0.43 µM; with L1210/0 [2], 0.75 µM; in the data set with A2780, < 0.25 µM. For the same compound, in the data set with L1210/DDP [5] (2 hours of exposure, mean (±SE), 3 experiments of 2 determinations), the IC50 worked out at 0.26 µM. Also, the “RF CH1/CDDP” value with CH1/CDDP is recorded as 0.8. For the same compound, the “Accumulation L1210/0” value in the data set on L1210/0 [1] is listed as 17 (3.4) attamol Pt complex/cell. Further, in the data set on L1210/DDP [3], the “Accumulation L1210/DDP” value is on record as 20 (2.1) attamol Pt complex/cell. Also, in data set [4], the “pKa of the N4 site” value turned out to be 9.24±0.05. Moreover, the “RF, resistance factor” value with L1210/DDP [5] (IC50 L1210/DDP / IC50 L1210/0, 2 hours of exposure) was determined as 0.35.

Consider `CC(=O)N(CCCN)CCCCN.N.N.N.N.[Cl-].[Cl-].[Cl][Pt+].[Cl][Pt+]` [Compound 5, [{trans-Pt(NH3)2Cl}2-μ-N^4—CH3CO-spermidine-N^1,N^8]Cl2], for which the IC50 was 12.5 µM with CH1/CDDP; 17.5 µM in the data set with 41M; 54 µM in the data set with A2780/CDDP; 7.4 µM with CH1; 24 µM in the data set with 41M/CDDP; 14 µM in the data set on A2780. Also, the “RF CH1/CDDP” value in the data set on CH1/CDDP turned out to be 1.7; in the data set with 41M/CDDP, 1.4. Further, in the data set on A2780/CDDP, the “RF A2780/CDDP” value was determined as 3.9.

Regarding `N.N.N.N.NCCCCN(CCCN)C(=O)C(F)(F)F.[Cl-].[Cl-].[Cl][Pt+].[Cl][Pt+]` [Compound 7, [{trans-Pt(NH3)2Cl}2-μ-N^4—CF3CO-spermidine-N^1,N^8]Cl2], the IC50 in the data set on CH1/CDDP is 5 µM; with 41M it was 3.7 µM; with A2780/CDDP, 46 µM; in the data set with CH1 it was 2.4 µM; in the data set with 41M/CDDP, 19 µM; in the data set on A2780, 6.8 µM. In addition, the “RF CH1/CDDP” value is 2.1 with CH1/CDDP and 5.1 with 41M/CDDP. The “Rate constant for the deprotection” value in data set [6] (pH 6, 37° C.) is given as 4.44 (±0.11) · 10^−8 s^−1; in data set [6] (pH 7, 37° C.), 2.73 (±0.06) · 10^−7 s^−1; in data set [6] (pH 8, 37° C.), 1.79 (±0.03) · 10^−6 s^−1. Also, the “RF A2780/CDDP” value in the data set with A2780/CDDP is on record as 6.8.
